Laboratory results reported in patent US9284300B2, “Pyridazinone derivatives” (Merck Patent GmbH, priority 2007, dated 2016).

How the values were obtained:
[1] = target: T1, Met kinase (Homo sapiens, UniProt P08581); assay: Met kinase inhibition, cell assay; assay type: cell-based
Target sequence in this assay (P08581 25-1390): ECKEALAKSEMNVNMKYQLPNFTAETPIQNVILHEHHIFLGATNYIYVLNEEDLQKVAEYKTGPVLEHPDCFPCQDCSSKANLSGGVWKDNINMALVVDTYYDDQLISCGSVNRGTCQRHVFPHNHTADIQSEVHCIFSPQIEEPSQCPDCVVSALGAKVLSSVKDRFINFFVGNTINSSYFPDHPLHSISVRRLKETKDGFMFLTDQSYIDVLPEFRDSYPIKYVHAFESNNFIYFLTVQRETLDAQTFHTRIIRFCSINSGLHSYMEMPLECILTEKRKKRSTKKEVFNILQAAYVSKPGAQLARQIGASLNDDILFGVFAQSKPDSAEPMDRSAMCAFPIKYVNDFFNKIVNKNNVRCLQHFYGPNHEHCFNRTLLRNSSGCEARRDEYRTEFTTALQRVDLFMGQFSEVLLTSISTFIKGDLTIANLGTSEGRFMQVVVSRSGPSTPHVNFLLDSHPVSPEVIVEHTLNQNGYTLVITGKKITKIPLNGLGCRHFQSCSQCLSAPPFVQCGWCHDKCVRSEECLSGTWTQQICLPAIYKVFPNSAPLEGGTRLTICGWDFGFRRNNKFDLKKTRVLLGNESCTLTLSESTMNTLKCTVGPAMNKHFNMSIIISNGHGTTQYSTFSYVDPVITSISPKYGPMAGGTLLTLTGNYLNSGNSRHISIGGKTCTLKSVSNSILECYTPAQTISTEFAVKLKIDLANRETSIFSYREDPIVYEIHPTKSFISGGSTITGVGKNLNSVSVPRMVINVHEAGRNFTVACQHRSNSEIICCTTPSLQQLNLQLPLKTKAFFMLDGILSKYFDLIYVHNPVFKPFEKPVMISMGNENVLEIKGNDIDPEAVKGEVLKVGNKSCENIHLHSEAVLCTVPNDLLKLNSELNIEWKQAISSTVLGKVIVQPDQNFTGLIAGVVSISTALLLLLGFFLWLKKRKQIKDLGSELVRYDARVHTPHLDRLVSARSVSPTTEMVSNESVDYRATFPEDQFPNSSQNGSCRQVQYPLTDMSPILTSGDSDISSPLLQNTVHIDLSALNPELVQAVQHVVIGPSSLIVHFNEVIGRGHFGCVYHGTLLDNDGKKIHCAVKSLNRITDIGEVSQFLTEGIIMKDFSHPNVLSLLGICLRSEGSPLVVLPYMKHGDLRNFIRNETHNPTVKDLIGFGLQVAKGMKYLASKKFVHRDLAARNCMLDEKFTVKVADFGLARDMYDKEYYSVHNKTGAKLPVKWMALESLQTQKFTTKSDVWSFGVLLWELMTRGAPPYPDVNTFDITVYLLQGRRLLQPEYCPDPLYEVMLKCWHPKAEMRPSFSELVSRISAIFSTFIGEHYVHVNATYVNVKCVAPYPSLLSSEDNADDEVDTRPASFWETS

[2] = target: T1, Met kinase; assay: Flashplate method (Met kinase); assay type: biochemical; design: 6His (N); purchased Upstate 14-526; host or cells: Sf21 insect cells (S. frugiperda), baculovirus; settings: Met kinase inhibition, enzyme assay
Procedure: The test plates used are 96-well Flashplate^R microtitre plates from Perkin Elmer (Cat. No. SMP200).
The full value used is the inhibitor-free kinase reaction. This should be approximately in the range 6000-9000 cpm. The pharmacological zero value used is staurosporin in a final concentration of 0.1 mM. The inhibitory values (IC50) are determined using the RS1_MTS program.
Kinase reaction conditions per well: • 30 μl of assay buffer • 10 μl of substance to be tested in assay buffer with 10% of DMSO • 10 μl of ATP (final concentration 1 μM cold, 0.35 μCi of ^33P-ATP) • 50 μl of Met kinase/substrate mixture in assay buffer; (10 ng of enzyme/well, 50 ng of pAGLT/well)
Target sequence in this assay (P08581 974-1390 limits assumed): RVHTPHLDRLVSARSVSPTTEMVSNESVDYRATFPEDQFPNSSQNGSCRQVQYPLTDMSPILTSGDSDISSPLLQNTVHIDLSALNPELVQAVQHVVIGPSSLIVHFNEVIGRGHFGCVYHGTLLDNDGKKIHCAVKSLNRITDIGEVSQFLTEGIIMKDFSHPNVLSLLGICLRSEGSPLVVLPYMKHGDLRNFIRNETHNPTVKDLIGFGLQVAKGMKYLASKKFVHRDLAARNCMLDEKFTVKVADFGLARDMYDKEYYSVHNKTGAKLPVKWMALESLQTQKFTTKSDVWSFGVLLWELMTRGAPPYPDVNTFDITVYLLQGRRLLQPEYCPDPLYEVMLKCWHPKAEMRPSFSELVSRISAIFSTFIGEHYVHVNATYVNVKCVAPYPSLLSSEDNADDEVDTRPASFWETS

[3] = test system: TPR-Met/NIH3T3 cells; assay: In-vivo tests: tumour volume, TPR-Met/NIH3T3 cells injected subcutaneously in Balb/C mice; settings: female Balb/C mice, s.c. TPR-Met/NIH3T3 tumour, 200 mg/kg daily by gastric tube, 9 days
Procedure: They were acclimatised to our keeping conditions for 7 days. Each mouse was subsequently injected subcutaneously in the pelvic area with 4 million TPR-Met/NIH3T3 cells in 100 μl of PBS (without Ca++ and Mg++).

SMILES	IC50 [1] [µM]	IC50 [2] [µM]	antitumoural action (tumour volume) [3]
Cc1cnc(-c2cccc(Cn3nc(-c4cc(F)c(F)c(F)c4)ccc3=O)c2)nc1 [A1, 2-[3-(5-methylpyrimidin-2-yl)benzyl]-6-(3,4,5-trifluorophenyl)-2H-pyridazin-3-one]	0.001 to 1	0.001 to 1	
O=C1OCCCN1c1cccc(Cn2nc(-c3cc(F)cc(F)c3)ccc2=O)c1 [A6, 3-{3-[3-(3,5-difluorophenyl)-6-oxo-6H-pyridazin-1-ylmethyl]phenyl}-1,3-oxazinan-2-one]		0.001 to 1	
Cc1ccc(=O)n(-c2cccc(Cn3nc(-c4cc(F)cc(F)c4)ccc3=O)c2)n1 [A8, 1-{3-[3-(3,5-difluorophenyl)-6-oxo-6H-pyridazin-1-yl-methyl]phenyl}-3-methyl-6H-pyridazin-6-one]		0.001 to 1	
O=c1ccc(-c2cc(F)cc(F)c2)nn1Cc1cccc(-c2nccc(N3CCNCC3)n2)c1 [A13, 6-(3,5-difluorophenyl)-2-[3-(4-piperazin-1-ylpyrimidin-2-yl)benzyl]-2H-pyridazin-3-one]	1 to 10		
CN1CCN(Cc2cnc(-c3cccc(Cn4nc(-c5cc(F)cc(F)c5)ccc4=O)c3)nc2)CC1 [A14, 6-(3,5-difluorophenyl)-2-{3-[5-(4-methylpiperazin-1-yl-methyl)pyrimidin-2-yl]benzyl}-2H-pyridazin-3-one]	0.001 to 1		
Cc1cnc(-c2cccc(Cn3nc(-c4cccc(C#N)c4)ccc3=O)c2)nc1 [A15, 3-{1-[3-(5-methylpyrimidin-2-yl)benzyl]-6-oxo-1,6-dihydropyridazin-3-yl}benzonitrile]	0.001 to 1		
CN(C)C=Nc1cnc(-c2cccc(Cn3nc(-c4cc(F)cc(F)c4)ccc3=O)c2)nc1 [A16, N′-(2-{3-[3-(3,5-difluorophenyl)-6-oxo-6H-pyridazin-1-ylmethyl]phenyl}-pyrimidin-5-yl)-N,N-dimethylformamidine]	0.001 to 1		
Nc1cnc(-c2cccc(Cn3nc(-c4cc(F)cc(F)c4)ccc3=O)c2)nc1 [A17, 2-[3-(5-aminopyrimidin-2-yl)benzyl]-6-(3,5-difluorophenyl)-2H-pyridazin-3-one]	0.001 to 1		
CN1CCN(c2cnc(-c3cccc(Cn4nc(-c5cc(F)cc(F)c5)ccc4=O)c3)nc2)CC1 [A18, 6-(3,5-difluorophenyl)-2-{3-[5-(4-methylpiperazin-1-yl)pyrimidin-2-yl]-benzyl}-2H-pyridazin-3-one]	0.001 to 1		significant antitumoural action
O=c1ccc(-c2cc(F)cc(F)c2)nn1Cc1cccc(-c2ncc(N3CCNCC3)cn2)c1 [A19, 6-(3,5-difluorophenyl)-2-[3-(5-piperazin-1-ylpyrimidin-2-yl)benzyl]-2H-pyridazin-3-one]	0.001 to 1		
CN1CCN(c2cnc(-c3cccc(Cn4nc(-c5cc(F)c(F)c(F)c5)ccc4=O)c3)nc2)CC1 [A20, 2-{3-[5-(4-methylpiperazin-1-yl)pyrimidin-2-yl]benzyl}-6-(3,4,5-trifluorophenyl)-2H-pyridazin-3-one]	0.001 to 1		
CN1CCC(Oc2cnc(-c3cccc(Cn4nc(-c5cc(F)cc(F)c5)ccc4=O)c3)nc2)CC1 [A23, 6-(3,5-difluorophenyl)-2-{3-[5-(1-methylpiperidin-4-yloxy)pyrimidin-2-yl]benzyl}-2H-pyridazin-3-one]	0.001 to 1		
O=c1ccc(-c2cc(F)cc(F)c2)nn1Cc1cccc(-c2ncc(Br)cn2)c1 [A25, 2-[3-(5-bromopyrimidin-2-yl)benzyl]-6-(3,5-difluorophenyl)-2H-pyridazin-3-one]	0.001 to 1		
Cn1cc(-c2cnc(-c3cccc(Cn4nc(-c5cc(F)cc(F)c5)ccc4=O)c3)nc2)cn1 [A26, 6-(3,5-difluorophenyl)-2-{3-[5-(1-methyl-1H-pyrazol-4-yl)pyrimidin-2-yl]benzyl}-2H-pyridazin-3-one]	0.001 to 1		
CN(C)CCCCNC(=O)c1cnc(-c2cccc(Cn3nc(-c4cc(F)c(F)c(F)c4)ccc3=O)c2)nc1 [A35]	0.001 to 1		
CN1CCN(CCOc2cnc(-c3cccc(Cn4nc(-c5cc(F)cc(F)c5)ccc4=O)c3)nc2)CC1 [A57]	0.001 to 1		
O=c1ccc(-c2cc(F)cc(F)c2)nn1Cc1cccc(-c2ncc(-c3cnn(C4CCNCC4)c3)cn2)c1 [A63]	0.001 to 1		
CN(C)CCOc1cnc(-c2cccc(Cn3nc(-c4cc(F)cc(F)c4)ccc3=O)c2)nc1 [A64, 2-{3-[5-(2-dimethylaminoethoxy)pyrimidin-2-yl]benzyl}-6-(3,5-difluorophenyl)-2H-pyridazin-3-one]	0.001 to 1		
CN1CCC(COc2cnc(-c3cccc(Cn4nc(-c5cc(F)cc(F)c5)ccc4=O)c3)nc2)CC1 [A66]	0.001 to 1		
Cc1cnc(-c2cccc(Cn3nc(-c4ccc5nsnc5c4)ccc3=O)c2)nc1 [A79]	0.001 to 1		
O=c1ccc(-c2cc(F)cc(F)c2)nn1Cc1cccc(-c2ncc(OC3CCNCC3)cn2)c1 [A102, 6-(3,5-difluorophenyl)-2-{3-[5-(piperidin-4-yloxy)pyrimidin-2-yl]benzyl}-2H-pyridazin-3-one]	0.001 to 1		
N#Cc1cccc(-c2ccc(=O)n(Cc3cccc(-c4ncc(-c5cnn(CCN6CCCC6)c5)cn4)c3)n2)c1 [A168, 3-[6-oxo-1-(3-{5-[1-(2-pyrrolidin-1-ylethyl)-1H-pyrazol-4-yl]pyrimidin-2-yl}benzyl)-1,6-dihydropyridazin-3-yl]-benzonitrile]	0.001 to 1		
Cn1cc(-c2ccc(=O)n(Cc3cccc(-c4ncc(-c5cnn(CCN6CCCC6)c5)cn4)c3)n2)cn1 [A169]	0.001 to 1		
CN(C)CCCOc1cnc(-c2cccc(Cn3nc(-c4cnn(C)c4)ccc3=O)c2)nc1 [A209, 2-{3-[5-(3-dimethylaminopropoxy)pyrimidin-2-yl]-benzyl}-6-(1-methyl-1H-pyrazol-4-yl)-2H-pyridazin-3-one]	0.001 to 1		
CN1CCC(Oc2cnc(-c3cccc(Cn4nc(-c5cnn(C)c5)ccc4=O)c3)nc2)CC1 [A226, 2-{3-[5-(1-methylpiperidin-4-yloxy)pyrimidin-2-yl]-benzyl}-6-(1-methyl-1H-pyrazol-4-yl)-2H-pyridazin-3-one]	0.001 to 1		
CN1CCC(COc2cnc(-c3cccc(Cn4nc(-c5cnn(C)c5)ccc4=O)c3)nc2)CC1 [A237, 2-{3-[5-(1-methylpiperidin-4-ylmethoxy)pyrimidin-2-yl]-benzyl}-6-(1-methyl-1H-pyrazol-4-yl)-2H-pyridazin-3-one]	0.001 to 1		
CN1CCN(c2cnc(-c3cccc(Cn4nc(-c5cccc(C#N)c5)ccc4=O)c3)nc2)CC1 [A287, 3-(1-{3-[5-(4-methylpiperazin-1-yl)pyrimidin-2-yl]benzyl}-6-oxo-1,6-dihydropyridazin-3-yl)benzonitrile]	0.001 to 1		
N#Cc1cccc(-c2ccc(=O)n(Cc3cccc(-c4ncc(N5CCNCC5)cn4)c3)n2)c1 [A288, 3-{6-oxo-1-[3-(5-piperazin-1-ylpyrimidin-2-yl)benzyl]-1,6-dihydropyridazin-3-yl}benzonitrile]	0.001 to 1		
